Measured values from US8932610B2, “Aqueous clear solutions of fluocinolone acetonide for treatment of otic inflammation” (Laboratorios Salvat, S.A., priority 2010, dated 2015).
Where a name gives a salt, the structure may show the parent alone.

What was measured:
[1] = cited from earlier work
[2] = Concentration of active ingredient before and after filtration through 0.22 μm filter; type: physicochemical
[3] = Batch 1, after filtration (0.22 μm filter)
[4] = Batch 1, before filtration (0.22 μm filter)
[5] = Batch 2, after filtration (0.22 μm filter)
[6] = Batch 2, before filtration (0.22 μm filter)

| SMILES | Solubility in water [1] | % of theoretical [2, 3] [%] | Concentration [2, 3] [%] | % of theoretical [2, 4] [%] | Concentration [2, 4] [%] | % of theoretical [2, 5] [%] | Concentration [2, 5] [%] | % of theoretical [2, 6] [%] | Concentration [2, 6] [%] |
| --- | --- | --- | --- | --- | --- | --- | --- | --- | --- |
| CC1(C)O[C@@H]2C[C@H]3[C@@H]4C[C@H](F)C5=CC(=O)C=C[C@]5(C)[C@@]4(F)[C@@H](O)C[C@]3(C)[C@]2(C(=O)CO)O1 [Fluocinolone Acetonide] | virtually insoluble in water | 100.0 | 0.025 | 100.0 | 0.025 | 100.0 | 0.025 | 100.0 | 0.025 |
| O=C(O)c1cn(C2CC2)c2cc(N3CCNCC3)c(F)cc2c1=O [Ciprofloxacin HCl] |  | 97.7 | 0.341 | 98.0 | 0.342 | 98.0 | 0.342 | 98.0 | 0.342 |
